Reference: the supplement of paper PMC10307832

Tests used:
Test in all cases: relative viability (nuclei count vs DMSO), 5 days (fraction); higher = more cells survive
[1] = compound: C[C@@H](Oc1cc(-c2cnn(C3CCNCC3)c2)cnc1N)c1c(Cl)ccc(F)c1Cl [Crizotinib] + N=C(N)NC(=N)NCCc1ccccc1 [Phenformin] (partner 250 µM)
Outline: (§1)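 For relative viability, nuclei counts in treated wells were divided by those in vehicle wells. Lung cancer cell lines had been pin-tool dosed in 1536-well plates the day after seeding and cultured for 5 days, then fixed and stained in one step (final 0.05% Triton X-100, 1% formaldehyde, 1 ug/ml Hoechst) and imaged at 4×. Doses were one drug alone or a fixed anchor-drug dose plus five library-drug doses (not always all listed) in √10 steps, and values are duplicate-plate medians.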

[2] = compound: CC(C)C[C@H](NC(=O)[C@H](CCc1ccccc1)NC(=O)CN1CCOCC1)C(=O)N[C@@H](Cc1ccccc1)C(=O)N[C@@H](CC(C)C)C(=O)[C@@]1(C)CO1 [Carfilzomib] + C[C@@H](Oc1cc(-c2cnn(C3CCNCC3)c2)cnc1N)c1c(Cl)ccc(F)c1Cl [Crizotinib] (partner 1 µM)
Outline: as §1

[3] = compound: CC(C)C[C@H](NC(=O)[C@H](CCc1ccccc1)NC(=O)CN1CCOCC1)C(=O)N[C@@H](Cc1ccccc1)C(=O)N[C@@H](CC(C)C)C(=O)[C@@]1(C)CO1 [Carfilzomib] + CC(=O)Nc1cccc(-n2c(=O)n(C3CC3)c(=O)c3c(Nc4ccc(I)cc4F)n(C)c(=O)c(C)c32)c1 [Trametinib] (partner 0.02 µM)
Outline: as §1

[4] = compound: O=C(c1cc(Cc2n[nH]c(=O)c3ccccc23)ccc1F)N1CCN(C(=O)C2CC2)CC1 [Olaparib] + CC(=O)Nc1cccc(-n2c(=O)n(C3CC3)c(=O)c3c(Nc4ccc(I)cc4F)n(C)c(=O)c(C)c32)c1 [Trametinib] (partner 0.02 µM)
Outline: as §1

Row | Cell Line | relative viability ([1]; first compound 0.01 µM) | relative viability ([1]; first compound 0.03162 µM) | relative viability ([1]; first compound 0.1 µM) | relative viability ([1]; first compound 1 µM) | relative viability ([2]; first compound 0.001 µM) | relative viability ([2]; first compound 0.003162 µM) | relative viability ([2]; first compound 0.01 µM) | relative viability ([2]; first compound 0.03162 µM) | relative viability ([2]; first compound 0.1 µM) | relative viability ([3]; first compound 0.001 µM) | relative viability ([3]; first compound 0.003162 µM) | relative viability ([3]; first compound 0.01 µM) | relative viability ([3]; first compound 0.03162 µM) | relative viability ([3]; first compound 0.1 µM) | relative viability ([4]; first compound 0.08 µM) | relative viability ([4]; first compound 0.253 µM) | relative viability ([4]; first compound 2.53 µM) | relative viability ([4]; first compound 8 µM) | relative viability ([1]; first compound 0.3162 µM)
1 | NCI-H23 | 0.743 | 0.855 | 0.783 | 0.795 | 0.637 | 0.612 | 0.587 | 0.153 | 0.134 | 0.39 | 0.328 | 0.428 | 0.238 | 0.0981 | 0.402 | 0.439 | 0.385 | 0.368 | 
2 | H3255 | 0.348 | 0.424 | 0.385 | 0.334 | 0.962 | 1.04 | 1.07 | 0.761 | 0.186 | 0.67 | 0.737 | 0.643 |  | 0.24 | 0.652 | 0.633 | 0.583 | 0.567 | 0.327
3 | NCI-H1355 | 0.431 | 0.497 | 0.522 | 0.442 | 1.05 | 1.05 | 1.03 | 0.695 | 0.139 | 0.42 | 0.469 | 0.422 | 0.44 | 0.139 | 0.385 | 0.433 | 0.481 | 0.476 | 0.382
4 | UMC-11 | 0.259 | 0.339 | 0.321 | 0.306 | 0.613 | 0.627 | 0.627 | 0.554 | 0.1 | 0.32 | 0.739 | 0.657 | 0.703 | 0.322 | 0.651 | 0.644 | 0.59 | 0.376 | 0.27
5 | EMC-BAC-2 | 0.532 | 0.544 | 0.569 | 0.473 | 0.779 | 0.896 | 0.928 | 0.661 | 0.229 | 0.895 | 0.962 | 1.04 | 0.791 | 0.277 | 0.971 | 0.844 | 0.932 | 0.806 | 0.253
6 | HCC-44 | 0.225 | 0.263 | 0.264 | 0.13 | 0.811 | 0.824 | 0.866 | 0.614 | 0.149 | 0.966 | 1.08 | 1 | 1.07 | 0.77 | 1.04 | 0.949 | 1.01 | 0.996 | 0.173
7 | PC-3 [JPC-3] | 0.469 | 0.506 | 0.482 | 0.482 | 1.01 | 0.99 | 0.985 | 0.828 | 0.376 | 0.77 | 0.679 | 0.706 | 0.552 | 0.279 | 0.777 |  | 0.712 | 0.744 | 0.452
8 | NCI-H1734 | 0.358 | 0.368 | 0.385 | 0.367 | 0.658 | 0.836 | 0.616 | 0.435 | 0.111 | 0.67 | 0.785 | 0.627 | 0.641 | 0.152 | 0.688 | 0.583 | 0.718 | 0.565 | 
9 | HOP-62 | 0.7 | 0.625 | 0.731 | 0.714 | 0.952 | 0.966 | 0.845 | 0.099 | 0.0686 | 0.385 | 0.38 | 0.363 | 0.21 | 0.0811 | 0.358 | 0.359 | 0.393 | 0.333 | 0.556
10 | HARA | 0.468 | 0.501 | 0.462 | 0.47 | 1.05 | 1.06 | 1.12 | 0.0563 | 0.0555 | 0.66 | 0.693 | 0.627 | 0.339 | 0.109 | 0.882 | 0.66 | 0.732 | 0.632 | 
11 | NCI-H2023 | 0.397 | 0.406 | 0.409 | 0.322 | 0.666 | 0.64 | 0.733 | 0.375 | 0.0656 | 0.486 | 0.614 | 0.669 | 0.269 | 0.0795 | 0.59 | 0.514 | 0.525 | 0.489 | 0.304
12 | NCI-H1993 | 0.493 | 0.51 | 0.534 | 0.509 | 0.871 | 0.97 | 1.12 | 0.807 | 0.473 | 0.51 | 0.471 | 0.603 | 0.53 | 0.481 | 0.559 | 0.57 | 0.517 | 0.384 | 0.507
13 | NCI-H460 | 0.488 | 0.521 | 0.536 | 0.564 | 0.921 | 1.01 | 0.852 | 0.0558 | 0.0115 | 0.116 | 0.143 | 0.181 | 0.13 | 0.0157 | 0.115 | 0.0823 | 0.121 | 0.0533 | 0.526
14 | NCI-H596 | 0.754 | 0.859 | 0.68 | 0.754 | 0.916 | 1.28 | 1 | 0.77 | 0.334 | 0.785 | 0.804 | 0.952 | 0.69 | 0.205 | 0.789 | 0.719 | 0.82 | 0.637 | 0.761
15 | NCI-H441 | 0.671 | 0.87 | 0.713 |  | 0.7 | 1.15 | 0.362 | 0.1 | 0.127 | 0.554 | 0.445 | 0.236 | 0.103 | 0.115 | 0.548 | 0.442 | 0.382 | 0.447 | 
16 | COR-L 105 | 0.384 | 0.516 | 0.406 | 0.492 | 0.84 | 0.743 | 0.608 | 0.262 | 0.17 | 0.451 | 0.458 | 0.416 | 0.35 | 0.328 | 0.472 | 0.446 | 0.425 | 0.428 | 0.431
17 | NCI-H322M | 0.627 | 0.821 | 0.799 | 0.797 | 0.935 | 0.864 | 0.938 | 0.795 | 0.252 | 0.505 | 0.49 | 0.487 | 0.507 | 0.364 | 0.496 | 0.57 | 0.577 | 0.523 | 0.579
18 | HCC-827 | 0.359 | 0.397 | 0.412 | 0.397 | 1.02 | 0.953 | 0.985 | 0.858 | 0.271 | 0.566 | 0.542 | 0.534 | 0.491 | 0.191 | 0.52 | 0.508 | 0.498 | 0.478 | 0.346
19 | NCI-H1651 | 0.294 | 0.356 | 0.292 | 0.336 | 0.874 | 0.914 | 0.782 | 0.383 | 0.122 | 0.79 | 0.9 | 0.794 | 0.304 | 0.119 | 0.849 | 0.75 | 0.642 | 0.504 | 0.287
20 | EKVX | 0.209 | 0.241 | 0.238 | 0.221 | 0.936 | 0.819 | 0.941 | 0.887 | 0.348 | 0.338 | 0.418 | 0.368 |  | 0.172 | 0.425 | 0.427 | 0.313 | 0.362 | 0.187
21 | 201T | 0.42 | 0.48 | 0.455 | 0.726 | 1.02 | 1.1 | 1.04 | 1.06 | 0.91 | 0.712 | 0.705 | 0.718 | 0.734 | 0.679 | 0.682 | 0.695 | 0.726 | 0.668 | 0.445
22 | NCI-H2228 | 0.23 | 0.241 | 0.29 | 0.164 | 0.49 | 0.389 | 0.666 | 0.149 | 0.17 | 0.235 | 0.584 | 0.697 | 0.103 | 0.109 | 0.609 | 0.344 | 0.495 | 0.521 | 0.172
23 | NCI-H2009 | 0.479 | 0.492 | 0.513 | 0.458 | 1.07 | 1.14 | 1.09 | 0.37 | 0.0428 | 0.232 | 0.312 | 0.287 | 0.295 | 0.119 | 0.275 | 0.283 | 0.315 | 0.267 | 0.426
24 | NCI-H1975 | 0.376 | 0.419 | 0.4 | 0.399 | 0.944 | 0.951 | 0.536 | 0.116 | 0.131 | 0.267 | 0.312 | 0.33 | 0.102 | 0.101 | 0.329 | 0.349 | 0.395 | 0.307 | 0.41
25 | NCI-H2347 | 0.24 | 0.329 | 0.473 | 0.333 | 0.798 | 0.756 | 0.596 | 0.449 | 0.35 | 0.269 | 0.23 | 0.298 | 0.292 | 0.262 | 0.282 | 0.274 | 0.274 | 0.248 | 0.488
26 | PC-14 | 0.562 | 0.675 | 0.642 | 0.522 | 0.939 | 0.934 | 0.9 | 0.326 | 0.0895 | 0.749 | 0.672 | 0.588 | 0.0506 | 0.0646 | 0.937 | 0.646 | 0.434 | 0.456 | 0.526
27 | COR-L23 | 0.376 | 0.409 | 0.426 | 0.428 | 0.71 | 0.828 | 0.731 | 0.0647 | 0.0659 | 0.565 | 0.739 | 0.577 | 0.0935 | 0.0822 | 0.661 | 0.642 | 0.498 | 0.451 | 0.389
28 | LK-2 | 0.583 | 0.37 | 0.221 | 0.325 |  | 0.237 | 0.16 | 0.262 | 0.209 | 0.713 | 0.973 | 0.747 | 0.172 | 0.2 | 0.887 | 0.701 | 0.888 | 0.788 | 
